This note sets out measurements from US6503935B1, “Imidazoles and related compounds as α1A agonists” (Abbott Laboratories, priority 1998, dated 2003).

The target in assay [1] is T1, α1A (rat submaxillary gland) (Rattus norvegicus, UniProt P43140).
T1 construct: α1A (rat submaxillary gland); from tissue; host or cells: rat submaxillary gland
T1 sequence (P43140 1-466): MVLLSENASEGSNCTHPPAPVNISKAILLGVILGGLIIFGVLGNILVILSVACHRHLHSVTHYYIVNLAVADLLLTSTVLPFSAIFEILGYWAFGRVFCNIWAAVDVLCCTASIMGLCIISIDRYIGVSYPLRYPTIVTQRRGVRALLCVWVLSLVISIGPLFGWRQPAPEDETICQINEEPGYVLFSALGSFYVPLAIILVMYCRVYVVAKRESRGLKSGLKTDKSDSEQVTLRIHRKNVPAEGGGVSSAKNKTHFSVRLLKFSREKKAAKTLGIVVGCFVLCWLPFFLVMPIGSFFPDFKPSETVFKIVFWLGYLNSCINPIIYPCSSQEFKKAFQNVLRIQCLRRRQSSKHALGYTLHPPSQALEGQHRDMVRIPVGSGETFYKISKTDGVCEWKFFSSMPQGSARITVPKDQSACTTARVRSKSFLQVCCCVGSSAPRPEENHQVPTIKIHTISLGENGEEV
Description: Radioligand binding with [3H]-prazosin, α1A. The procedure:
(§1) For purposes of discussing α1 adrenoceptor subtypes, the IUPHAR convention of using lower case letters to define molecular clones and upper case letters to indicate pharmacologically defined adrenoceptors has been followed. Compounds of formula I were evaluated in radioligand binding assays specific for α1A (rat submaxillary gland), α1b (hamster receptor expressed in mouse fibroblasts) and α1d (rat receptor expressed in mouse fibroblasts) using [^3H]-prazosin as the radioligand as described in Knepper, et al. J. Pharm.

Assay [2] addresses T2, α1d (rat receptor expressed in mouse fibroblasts) (Rattus norvegicus, UniProt P23944).
T2 construct: expressed in transfected cells; host or cells: mouse fibroblasts
T2 sequence (P23944 1-561): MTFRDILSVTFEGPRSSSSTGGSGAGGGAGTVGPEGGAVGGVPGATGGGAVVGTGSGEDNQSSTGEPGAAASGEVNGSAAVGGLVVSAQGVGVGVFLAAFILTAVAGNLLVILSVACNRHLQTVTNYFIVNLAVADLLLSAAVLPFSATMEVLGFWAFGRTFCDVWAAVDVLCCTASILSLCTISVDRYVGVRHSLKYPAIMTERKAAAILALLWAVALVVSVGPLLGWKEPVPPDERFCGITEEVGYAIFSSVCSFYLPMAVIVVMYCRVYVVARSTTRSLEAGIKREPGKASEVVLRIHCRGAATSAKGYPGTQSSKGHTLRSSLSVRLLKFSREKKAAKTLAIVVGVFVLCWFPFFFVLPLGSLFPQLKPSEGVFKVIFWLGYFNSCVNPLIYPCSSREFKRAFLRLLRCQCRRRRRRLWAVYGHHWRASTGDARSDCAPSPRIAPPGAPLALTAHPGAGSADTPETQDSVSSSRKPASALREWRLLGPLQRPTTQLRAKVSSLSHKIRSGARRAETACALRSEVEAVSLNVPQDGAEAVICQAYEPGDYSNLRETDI
Nature of the assay: Radioligand binding with [3H]-prazosin, α1d. As for the experimental part:
as §1

Assay [3] has as its target T3, α1A (rabbit urethra) (Oryctolagus cuniculus, UniProt O02824).
T3 construct: tested for α1A functional activity using rabbit urethra; from tissue; host or cells: rabbit urethra
T3 sequence (O02824 1-466): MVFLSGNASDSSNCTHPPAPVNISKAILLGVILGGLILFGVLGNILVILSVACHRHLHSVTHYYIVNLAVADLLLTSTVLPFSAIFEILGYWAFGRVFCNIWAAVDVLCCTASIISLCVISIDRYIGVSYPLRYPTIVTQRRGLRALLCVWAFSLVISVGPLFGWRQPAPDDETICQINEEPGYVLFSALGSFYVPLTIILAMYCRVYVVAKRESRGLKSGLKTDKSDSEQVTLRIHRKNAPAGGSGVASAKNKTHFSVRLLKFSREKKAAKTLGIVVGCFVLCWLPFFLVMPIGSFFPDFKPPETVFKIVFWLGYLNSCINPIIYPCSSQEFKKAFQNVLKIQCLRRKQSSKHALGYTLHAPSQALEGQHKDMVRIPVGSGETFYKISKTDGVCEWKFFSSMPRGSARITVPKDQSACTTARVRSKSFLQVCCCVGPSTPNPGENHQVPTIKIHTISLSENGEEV
Nature of the assay: Agonist contraction of smooth muscle tissue, rabbit urethra. Format: cell-based. Conditions: for EC50: read-out: Agonist Tissue Response (pD2) α1A (rab ureth) (converted). The procedure:
Most of the compounds were tested for α1A functional activity using rabbit urethra as follows. Female New Zealand white rabbits (2.0-3.5 Kg) were sedated with CO2 and decapitated. […] Subsequent experimental conditions were as described above for the other tissues. Agonist concentration response curves were cumulative except for the vas deferens assay in which the transient response made such measurements impractical.

The target in assay [4] is T4, α1B (rat spleen) (Rattus norvegicus, UniProt P15823).
T4 construct: α1B (rat spleen) and α1D (rat aorta) receptors; from tissue; host or cells: rat spleen
T4 sequence (P15823 1-515): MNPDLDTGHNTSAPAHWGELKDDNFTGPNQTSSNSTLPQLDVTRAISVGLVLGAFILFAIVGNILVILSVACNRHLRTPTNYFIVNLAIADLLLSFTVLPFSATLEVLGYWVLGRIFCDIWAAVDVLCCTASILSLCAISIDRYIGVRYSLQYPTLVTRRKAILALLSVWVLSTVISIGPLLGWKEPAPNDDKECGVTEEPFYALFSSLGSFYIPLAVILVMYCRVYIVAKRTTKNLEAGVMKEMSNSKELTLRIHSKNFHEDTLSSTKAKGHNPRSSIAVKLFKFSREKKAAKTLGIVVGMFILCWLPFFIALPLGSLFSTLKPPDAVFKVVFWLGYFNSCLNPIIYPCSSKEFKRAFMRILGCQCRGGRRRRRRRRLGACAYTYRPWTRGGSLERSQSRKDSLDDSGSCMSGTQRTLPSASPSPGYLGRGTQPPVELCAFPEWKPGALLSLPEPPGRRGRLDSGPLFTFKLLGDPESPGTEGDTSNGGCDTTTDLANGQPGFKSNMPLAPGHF
Description: Agonist contraction of smooth muscle tissue, rat spleen. Format: cell-based. The following applies: for EC50: read-out: Agonist Tissue Response (pD2) α1B (rat spleen) (converted).

Assay [5] deals with T5, α1D (rat aorta) (Rattus norvegicus, UniProt P23944).
T5 construct: α1B (rat spleen) and α1D (rat aorta) receptors; from tissue; host or cells: rat aorta strips, endothelium removed
T5 sequence (P23944 1-561): T2 sequence (P23944 1-561)
Nature of the assay: Agonist contraction of smooth muscle tissue, rat aorta. It counts as cell-based. The following applies: for EC50: read-out: Agonist Tissue Response (pD2) α1D (rat aorta) (converted).

In assay [6] the target is T6, α1b (hamster receptor expressed in mouse fibroblasts) (Mesocricetus auratus, UniProt P18841).
T6 construct: expressed in transfected cells; host or cells: mouse fibroblasts
T6 sequence (P18841 1-515): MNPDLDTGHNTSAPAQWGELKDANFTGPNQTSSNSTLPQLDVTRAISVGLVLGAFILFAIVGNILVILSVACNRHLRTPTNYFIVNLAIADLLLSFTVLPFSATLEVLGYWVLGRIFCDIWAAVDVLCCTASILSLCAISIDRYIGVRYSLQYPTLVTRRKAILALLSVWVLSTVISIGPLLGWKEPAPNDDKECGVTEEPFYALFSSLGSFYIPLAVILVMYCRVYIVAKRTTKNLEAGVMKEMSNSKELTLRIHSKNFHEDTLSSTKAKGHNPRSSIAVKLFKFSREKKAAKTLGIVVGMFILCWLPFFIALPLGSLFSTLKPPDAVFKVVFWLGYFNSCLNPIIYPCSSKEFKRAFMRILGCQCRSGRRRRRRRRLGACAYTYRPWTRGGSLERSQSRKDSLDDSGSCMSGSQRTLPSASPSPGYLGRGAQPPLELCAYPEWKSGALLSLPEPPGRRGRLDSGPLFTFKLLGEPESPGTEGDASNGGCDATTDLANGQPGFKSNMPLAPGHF
Description: Radioligand binding with [3H]-prazosin, α1b. As for the experimental part:
as §1

Setting [7] is: rat submaxillary gland, [3H]-prazosin.
[8] abbreviates: rat receptor expressed in mouse fibroblasts, [3H]-prazosin, read-out: Radioligand Binding Ki α1d (Rat).
The mark [9] stands for this setting: Radioligand Binding Ki α1d (Rat), rat receptor expressed in mouse fibroblasts, [3H]-prazosin.
[10] abbreviates: hamster receptor expressed in mouse fibroblasts, [3H]-prazosin, read-out: Radioligand Binding Ki α1b (Hamster).

Where a name gives a salt, the structure may show the parent alone. Read-outs that look alike come from different tables or passages of the source. Where only a bound is given, the exact number is not on record here.

For the compound `CS(=O)(=O)Nc1ccc(Cl)c2c1CCCC2c1c[nH]cn1` (centres unmarked) [Example 43, N-[4-chloro-5-(1H-imidazol-4-yl)-5,6,7,8-tetrahydro-1-naphthalenyl]methanesulfonamide, maleate], the inhibitory constant (Ki) turned out to be 0.445 µM in assay [1] (setting [7]) and 2.86 µM in assay [2] (setting [8]). The EC50 is 44.7 µM in assay [3] (rabbit urethra); greater than 1000 µM in assay [4] (rat spleen); greater than 1000 µM in assay [5] (rat aorta, endothelium removed).

Take `Cn1cnc(C2CCCc3c2ccc(O)c3NS(C)(=O)=O)c1` (centres unmarked) [Example 5, N-[2-hydroxy-5-(1-methyl-1H-imidazol-4-yl)-5,6,7,8-tetrahydro-1-naphthalenyl]methanesulfonamide, hydrochloride]: the results for the Ki in assay [1], in assay [6] (read-out: Radioligand Binding Ki α1b (Hamster)) and in assay [2] (read-out: Radioligand Binding Ki α1d (Rat)) were 0.136 µM, 6.14 µM and 1.55 µM, respectively. Also, the values for the EC50 in assay [3], in assay [4] and in assay [5] were 0.513 µM, 9.33 µM and 3.31 µM, respectively.

For the compound `CS(=O)(=O)Nc1ccc(F)c(Cc2c[nH]cn2)c1` [Example 41, N-[4-fluoro-3-(1H-imidazol-4-ylmethyl)phenyl]methanesulfonamide, maleate], the figures for the Ki in assay [1] (setting [7]), in assay [6] and in assay [2] (setting [9]) were 0.752 µM, 1.63 µM and 0.348 µM, respectively. In addition, the EC50 in assay [3] (rabbit urethra) was 13.5 µM.

For the compound “N-[5,6,7,8-tetrahydro-5-(1H-imidazol-4-yl)-1-naphthalenyl]-2-methylethanesulfonamide, maleate [Example 18]”, the Ki in assay [1] (setting [7]) amounted to 1.14 µM; in assay [2] (setting [8]) it was 2.05 µM. For the same compound, the “Agonist Tissue Response (pD2) α1A (rab ureth)” value in assay [3] (rabbit urethra) worked out at 5.17. Also, the “Agonist Tissue Response (pD2) α1B (rat spleen)” value in assay [4] (rat spleen) is 4.85. Besides, the “Agonist Tissue Response (pD2) α1D (rat aorta)” value in assay [5] (rat aorta, endothelium removed) came out at 4.96.

As for `O=S(=O)(CCCCl)Nc1cccc2c1CCCC2c1cnc[nH]1` (centres unmarked) [Example 65, 3-Chloro-N-[5-(1H-imidazol-5-yl)-5,6,7,8-tetrahydro-1-naphthalenyl]-1-propanesulfonamide], the values for the Ki in assay [1] (setting [7]), in assay [6] (setting [10]) and in assay [2] (setting [8]) were 1.16 µM, 4.4 µM and 5.3 µM, respectively.

As to `CCS(=O)(=O)Nc1cccc(C(=C2CCCCC2)c2c[nH]cn2)c1` [Example 56], the Ki was found to be 0.229 µM in assay [1] (setting [7]), 0.0151 µM in assay [6] and 0.00198 µM in assay [2] (setting [9]). For the same compound, the EC50 is 16.2 µM in assay [3] (rabbit urethra) and greater than 1000 µM in assay [5] (rat aorta, endothelium removed).

Consider `Cn1cnc(S(=O)(=O)Nc2cccc3c2CCCC3c2cnc[nH]2)c1` (centres unmarked) [Example 66, N-[5-(1H-imidazol-5-yl)-5,6,7,8-tetrahydro-1-naphthalenyl]-1-methyl-1H-imidazole-4-sulfonamide], for which the values for the Ki in assay [1] (setting [7]), in assay [6] (setting [10]) and in assay [2] (setting [8]) were 0.366 µM, 1.13 µM and 0.458 µM, respectively.

Turning to `O=S(=O)(Nc1cccc2c1CCCC2c1cnc[nH]1)c1cccc2cccnc12` (centres unmarked) [Example 73, N-[5-(1H-imidazol-5-yl)-5,6,7,8-tetrahydro-1-naphthalenyl]-8-quinolinesulfonamide], the Ki turned out to be 1.02 µM in assay [1] (setting [7]), 1.19 µM in assay [6] (setting [10]) and 2.23 µM in assay [2] (setting [8]). Further, in assay [3] (rabbit urethra), the EC50 was 17.8 µM.

Regarding `Cc1ccc(NS(C)(=O)=O)c2c1C(c1c[nH]cn1)CCC2` (centres unmarked) [Example 23, N-[5,6,7,8-tetrahydro-5-(1H-imidazol-4-yl)-4-methyl-1-naphthalenyl]methanesulfonamide, maleate], the Ki in assay [1] (setting [7]) was 0.391 µM; in assay [2] (setting [8]), 2.67 µM. In addition, the EC50 is 39.8 µM in assay [3] (rabbit urethra); greater than 1000 µM in assay [4] (rat spleen); greater than 1000 µM in assay [5] (rat aorta, endothelium removed).

As to `CCS(=O)(=O)Nc1cccc(C(C)c2c[nH]cn2)c1` (centres unmarked) [Example 37, N-{3-[1-(1H-imidazol-4-yl)ethyl]phenyl}ethanesulfonamide, maleate], the Ki worked out at 0.772 µM in assay [1] (setting [7]), 2.28 µM in assay [6] and 0.452 µM in assay [2] (setting [9]). Besides, the EC50 in assay [3] (rabbit urethra) is 5.37 µM.

“5-Chloro-N-[5-(1H-imidazol-5-yl)-5,6,7,8-tetrahydro-1-naphthalenyl]-3-methyl-2,3-dihydro-1-benzothiophene-2-sulfonamide [Example 77]”: the Ki in assay [1] (setting [7]) turned out to be 0.65 µM; in assay [6] (setting [10]), 0.32 µM; in assay [2] (setting [8]) it was 0.111 µM.

In the case of `COc1ccc(S(=O)(=O)Nc2cccc3c2CCCC3c2cnc[nH]2)cc1` (centres unmarked) [Example 71, N-[5-(1H-imidazol-5-yl)-5,6,7,8-tetrahydro-1-naphthalenyl]-4-methoxybenzenesulfonamide], the Ki was 1.54 µM in assay [1] (setting [7]), 1.05 µM in assay [6] (setting [10]) and 2.29 µM in assay [2] (setting [8]).
